Measurements: PMC10372924, “The Jasmine (Jasminum sambac) Genome Provides Insight into the Biosynthesis of Flower Fragrances and Jasmonates” (Genomics, Proteomics & Bioinformatics, 2022)

Target: T1, JsTPS3 (GST-JsTPS3) (Jasminum sambac, UniProt A0A8T9EC85)
T1 construct: gene TPS3; full-length CDS in pGEX-6p-1, N-terminal GST tag kept, E. coli Rosetta (DE3), ~98 kDa with tag
T1 sequence (A0A8T9EC85 1-540): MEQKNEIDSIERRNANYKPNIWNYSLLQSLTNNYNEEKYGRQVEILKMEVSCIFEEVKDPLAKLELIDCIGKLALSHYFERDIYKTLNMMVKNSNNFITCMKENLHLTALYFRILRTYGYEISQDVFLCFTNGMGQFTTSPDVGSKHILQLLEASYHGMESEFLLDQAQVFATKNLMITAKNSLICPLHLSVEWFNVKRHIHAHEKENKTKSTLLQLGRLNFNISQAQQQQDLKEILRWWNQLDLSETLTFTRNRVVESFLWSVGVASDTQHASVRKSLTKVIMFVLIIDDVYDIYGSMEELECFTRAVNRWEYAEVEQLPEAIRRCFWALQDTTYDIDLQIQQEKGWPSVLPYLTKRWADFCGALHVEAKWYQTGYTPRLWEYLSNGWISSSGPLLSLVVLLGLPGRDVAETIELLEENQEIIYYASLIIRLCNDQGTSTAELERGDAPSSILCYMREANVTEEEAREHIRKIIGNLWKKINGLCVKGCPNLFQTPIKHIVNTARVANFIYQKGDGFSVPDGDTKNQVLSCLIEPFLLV
Test: GC-Orbitrap MS detection of trans-beta-ocimene and beta-ocimene formed
Format: biochemical
Conditions: 60 uM GPP; 30 mM HEPES pH 7.5, 5 mM DTT, 25 mM MgCl2; 30 °C 1 h, then 45 °C 15 min; 10 or 15 ug enzyme in 1 ml

CC(C)=CCC/C(C)=C/COP(=O)(O)OP(=O)(O)O [GPP, geranyl pyrophosphate]
GC-Orbitrap MS detection of trans-beta-ocimene and beta-ocimene formed: recombinant JsTPS3 protein exerts TPS activity by catalyzing GPP into trans-β-ocimene and β-ocimene
